Here are results for twelve molecules from ChEMBL document CHEMBL1128061, “N-substituted glycines as replacements for proline in tripeptide aldehyde thrombin inhibitors” (Bioorg Med Chem Lett, 1995).

The nature of assay [1]: Ratio of association constant of thrombin and plasmin.
A short description of assay [2]: Ratio of association constant of thrombin and tissue-type plasminogen activator.
The target of assay [3] is Thrombin & trypsin (Homo sapiens) (UniProt P00734+P07477+P07478+P35030). The assay can be described thus: Ratio of association constant of thrombin and trypsin. The class given is protein assay.
The target of assay [4] is Prothrombin (Homo sapiens) (UniProt P00734). The assay can be described thus: Association constant for thrombin.

Molecules are shown by their SMILES. Where a SMILES comes first, the peptide text is derived from it. [ ]: non-standard residue; d: D form. dPip = O=C(O)[C@H]1CCCCN1

As for `N=C(N)NCCC[C@@H](C=O)NC(=O)[C@@H]1CCCN1C(=O)[C@H]1CCCCN1` (H-[dPip]-Pro-Arg-aldehyde), the Ratio in assay [1] was determined as 220; in assay [2], 6700; in assay [3], 3.3. For the same molecule, the K ass in assay [4] was found to be 200 L/µM.

With `CC(C)N(CC(=O)N[C@H](C=O)CCCN=C(N)N)C(=O)[C@H]1CCCCN1`, the Ratio was 10000 in assay [1], 10000 in assay [2] and 20 in assay [3]. In addition, the K ass in assay [4] stood at 10 L/µM.

As for `CCN(CC(=O)N[C@H](C=O)CCCN=C(N)N)C(=O)[C@H]1CCCCN1`, the Ratio in assay [1] is 3300; in assay [2], 6600; in assay [3] it was 25. This molecule also displayed a K ass in assay [4] of 33 L/µM.

Turning to `CCCN(CC(=O)N[C@H](C=O)CCCN=C(N)N)C(=O)[C@H]1CCCCN1`, the Ratio in assay [1] turned out to be 680; in assay [2], 8500; in assay [3], 14. The K ass in assay [4] is 34 L/µM.

For the molecule `CC(C)CCN(CC(=O)N[C@H](C=O)CCCN=C(N)N)C(=O)[C@H]1CCCCN1`, the Ratio in assay [1] was 270; in assay [2], 4000; in assay [3] it was 2.7. Moreover, the K ass in assay [4] is 16 L/µM.

Take `N=C(N)NCCC[C@@H](C=O)NC(=O)CN(CCc1ccccc1)C(=O)[C@H]1CCCCN1`: the Ratio in assay [1] amounted to 200; in assay [2], 14500; in assay [3], 32. For the same molecule, in assay [4], the K ass turned out to be 87 L/µM.

As for `N=C(N)NCCC[C@@H](C=O)NC(=O)CN(CCCc1ccccc1)C(=O)[C@H]1CCCCN1`, the Ratio in assay [1] stood at 200; in assay [2], 4000; in assay [3], 4. Moreover, the K ass in assay [4] was 24 L/µM.

Consider `N=C(N)NCCC[C@@H](C=O)NC(=O)CN(Cc1ccccc1)C(=O)[C@H]1CCCCN1`, for which the Ratio worked out at 77 in assay [1], 1000 in assay [2] and 1 in assay [3]. The molecule also returned a K ass in assay [4] of 10 L/µM.

Consider `N=C(N)NCCC[C@@H](C=O)NC(=O)CN(C(=O)[C@H]1CCCCN1)c1ccccc1`, for which the Ratio in assay [1] came to 400; in assay [2], 4000; in assay [3], 15. This molecule also had a K ass in assay [4] of 16 L/µM.

`N=C(N)NCCC[C@@H](C=O)NC(=O)CN(CCC1CCCCC1)C(=O)[C@H]1CCCCN1`: the Ratio in assay [1] came out at 16; in assay [2], 770; in assay [3], 0.9. For the same molecule, the K ass in assay [4] was determined as 5.4 L/µM.

In the case of `CC(C)CN(CC(=O)N[C@H](C=O)CCCN=C(N)N)C(=O)[C@H]1CCCCN1`, the Ratio in assay [1] is 480; in assay [2] it was 24000; in assay [3] it was 15. The molecule also came in with a K ass in assay [4] of 24 L/µM.

With `CN(CC(=O)N[C@H](C=O)CCCN=C(N)N)C(=O)[C@H]1CCCCN1`, the Ratio in assay [1] came out at 730; in assay [2], 5500; in assay [3], 24. The molecule also yielded a K ass in assay [4] of 22 L/µM.
